In patent publication US20230416240A1, “KAT6 TARGETING COMPOUNDS” (Prelude Therapeutics Incorporated, priority 2022, published 2023):

Target: T1, HiBit tagged KAT6A (Homo sapiens, UniProt Q92794)
T1 construct: host or cells: HeLa
Test: HiBit KAT6A Degradation Assessment
Type: cell-based
Settings: HeLa cells with HiBit tagged KAT6A, 18 h of treatment, 9-point serial dilution
Protocol: The degradation activity of compounds was evaluated by measuring levels of KAT6A protein using the HiBiT system. These studies were conducted in HeLa cells with a HiBit tagged KAT6A. Cells were maintained in a 37° C. incubator at 5% CO2 in EMEM (ATCC, 30-2003) supplemented with 10% v/v FBS (Gibco, 26140-079) and 1% penicillin streptomycin. Cells were seeded in 384-well plates at a density of 2,000 cells/well. Compounds dissolved in DMSO were added in 9-point serial dilution. After 18 h of treatment, KAT6A levels were measured using the Nano-Glo® HiBiT Lytic Detection System (Promega catalog number N3030) per manufacturer's instructions. Luminescence signal was measured with a multimode plate reader (Envision 2105, Perkin Elmer). Luminescence values were normalized to background and DMSO controls to quantify KAT6A for each condition. Results were analyzed, and DC50 and Dmax values obtained using a four-parameter logistic curve fit.

T1 sequence (Q92794 whole entry): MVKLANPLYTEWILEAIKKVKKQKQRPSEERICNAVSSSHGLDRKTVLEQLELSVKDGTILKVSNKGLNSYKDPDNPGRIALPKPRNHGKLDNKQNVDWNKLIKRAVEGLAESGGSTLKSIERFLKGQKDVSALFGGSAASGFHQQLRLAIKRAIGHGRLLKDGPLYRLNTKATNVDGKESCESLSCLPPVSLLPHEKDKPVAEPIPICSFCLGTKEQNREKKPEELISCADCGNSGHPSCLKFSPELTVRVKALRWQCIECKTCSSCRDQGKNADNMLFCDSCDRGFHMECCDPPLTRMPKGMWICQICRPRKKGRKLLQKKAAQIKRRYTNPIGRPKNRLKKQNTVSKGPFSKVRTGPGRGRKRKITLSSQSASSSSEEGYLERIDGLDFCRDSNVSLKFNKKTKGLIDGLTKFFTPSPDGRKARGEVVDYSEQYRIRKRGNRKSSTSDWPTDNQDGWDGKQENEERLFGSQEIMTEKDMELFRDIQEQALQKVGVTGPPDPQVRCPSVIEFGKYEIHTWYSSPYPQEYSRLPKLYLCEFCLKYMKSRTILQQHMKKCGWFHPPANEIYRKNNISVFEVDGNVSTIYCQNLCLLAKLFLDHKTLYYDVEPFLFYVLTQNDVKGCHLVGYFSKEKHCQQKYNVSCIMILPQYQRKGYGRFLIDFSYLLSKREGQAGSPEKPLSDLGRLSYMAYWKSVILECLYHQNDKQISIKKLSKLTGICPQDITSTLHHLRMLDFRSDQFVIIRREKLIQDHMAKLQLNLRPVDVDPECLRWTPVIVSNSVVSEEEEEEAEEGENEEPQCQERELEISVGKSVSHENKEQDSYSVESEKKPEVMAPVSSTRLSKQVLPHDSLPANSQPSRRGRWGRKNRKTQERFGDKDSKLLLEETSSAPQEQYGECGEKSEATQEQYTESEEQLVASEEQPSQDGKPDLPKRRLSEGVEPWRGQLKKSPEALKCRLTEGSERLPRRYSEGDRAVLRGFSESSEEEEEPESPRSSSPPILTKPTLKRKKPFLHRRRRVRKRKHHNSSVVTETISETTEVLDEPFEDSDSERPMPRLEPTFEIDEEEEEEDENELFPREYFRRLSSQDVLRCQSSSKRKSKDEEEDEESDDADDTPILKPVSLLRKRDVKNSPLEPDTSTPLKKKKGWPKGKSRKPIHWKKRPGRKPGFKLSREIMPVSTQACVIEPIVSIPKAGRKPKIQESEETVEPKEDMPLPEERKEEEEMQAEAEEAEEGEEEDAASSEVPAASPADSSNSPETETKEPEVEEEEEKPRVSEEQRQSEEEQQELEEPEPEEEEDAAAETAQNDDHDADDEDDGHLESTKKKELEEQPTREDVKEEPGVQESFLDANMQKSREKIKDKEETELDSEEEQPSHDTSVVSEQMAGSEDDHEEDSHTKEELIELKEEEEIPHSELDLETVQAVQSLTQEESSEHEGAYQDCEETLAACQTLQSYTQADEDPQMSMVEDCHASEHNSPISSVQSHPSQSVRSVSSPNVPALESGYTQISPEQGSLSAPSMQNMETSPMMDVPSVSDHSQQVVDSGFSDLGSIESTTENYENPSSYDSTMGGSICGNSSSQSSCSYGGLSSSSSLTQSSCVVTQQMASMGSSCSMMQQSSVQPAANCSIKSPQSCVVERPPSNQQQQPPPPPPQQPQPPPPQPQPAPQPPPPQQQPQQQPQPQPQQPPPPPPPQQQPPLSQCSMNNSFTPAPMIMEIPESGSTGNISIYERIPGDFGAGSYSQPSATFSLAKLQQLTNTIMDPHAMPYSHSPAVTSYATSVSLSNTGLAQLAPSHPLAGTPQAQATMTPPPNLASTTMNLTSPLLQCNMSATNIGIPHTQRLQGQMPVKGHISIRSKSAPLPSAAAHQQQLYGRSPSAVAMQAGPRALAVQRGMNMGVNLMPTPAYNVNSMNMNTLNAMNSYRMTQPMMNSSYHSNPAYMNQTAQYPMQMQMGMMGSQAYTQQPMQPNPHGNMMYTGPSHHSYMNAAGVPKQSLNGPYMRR

Row | Structure (SMILES) | DC50 | Dmax
1 | COc1cc(Cn2cccn2)cc2onc(NS(=O)(=O)c3cccc(N4CCN(CCOC5CCN(c6ccc7c(c6)C(=O)N(C6CCC(=O)NC6=O)C7=O)CC5)CC4)c3)c12 (stereo not shown) [Example 17, N-(6-((1H-Pyrazol-1-yl)methyl)-4-methoxybenzo[d]isoxazol-3-yl)-3-(4-(2-((1-(2-(2,6-dioxopiperidin-3-yl)-1,3-dioxoisoindolin-5-yl)piperidin-4-yl)oxy)ethyl)-piperazin-1-yl)benzenesulfonamide] | – | 25 to 50%
2 | COc1cc(Cn2cccn2)cc2onc(NS(=O)(=O)c3cccc(N4CCC(CN5CCC(Oc6ccc7c(c6)C(=O)N(C6CCC(=O)NC6=O)C7=O)CC5)C4)c3)c12 (stereo not shown) [Example 23, N-(6-((1H-Pyrazol-1-yl)methyl)-4-methoxybenzo[d]isoxazol-3-yl)-3-(3-((4-((2-(2,6-dioxopiperidin-3-yl)-1,3-dioxoisoindolin-5-yl)oxy)piperidin-1-yl)methyl)pyrrolidin-1-yl)benzenesulfonamide] | – | 25 to 50%
3 | COc1cc(Cn2cccn2)cc2onc(NS(=O)(=O)c3cccc(N4CCN(C(=O)C5CCN(c6ccc7c(c6)C(=O)N(C6CCC(=O)NC6=O)C7=O)C5)CC4)c3)c12 (stereo not shown) [Example 24, N-(6-((1H-pyrazol-1-yl)methyl)-4-methoxybenzo[d]isoxazol-3-yl)-3-(4-(1-(2-(2,6-dioxopiperidin-3-yl)-1,3-dioxoisoindolin-5-yl)pyrrolidine-3-carbonyl)piperazin-1-yl)benzenesulfonamide] | – | ≤ 25%
4 | COc1ccc(N2CC3(CCN(C[C@@H]4CCN(c5ccc6c(c5)C(=O)N(C5CCC(=O)NC5=O)C6=O)C4)CC3)C2)c(OC)c1S(=O)(=O)Nc1noc2cc(Cn3cccn3)cc(OC)c12 (stereo partly drawn) [Example 25, N-(6-((1H-Pyrazol-1-yl)methyl)-4-methoxybenzo[d]isoxazol-3-yl)-3-(7-(((3S)-1-(2-(2,6-dioxopiperidin-3-yl)-1,3-dioxoisoindolin-5-yl)pyrrolidin-3-yl)methyl)-2,7-diazaspiro[3.5]nonan-2-yl)-2,6-dimethoxybenzenesulfonamide] | < 0.01 µM | > 75%
5 | COc1c(N2CC3(CCN(C[C@@H]4CCN(c5ccc6c(c5)CN(C5CCC(=O)NC5=O)C6=O)C4)CC3)C2)cccc1S(=O)(=O)Nc1noc2cc(Cn3cccn3)cc(OC)c12 (stereo partly drawn) [Example 26, N-(6-((1H-Pyrazol-1-yl)methyl)-4-methoxybenzo[d]isoxazol-3-yl)-3-(7-(((3S)-1-(2-(2,6-dioxopiperidin-3-yl)-1-oxoisoindolin-5-yl)pyrrolidin-3-yl)methyl)-2,7-diazaspirononan-2-yl)-2-methoxybenzenesulfonamide] | < 0.01 µM | > 75%
6 | COc1c(N2CC3(CCN(C[C@H]4CCN(c5ccc6c(c5)CN(C5CCC(=O)NC5=O)C6=O)C4)CC3)C2)cccc1S(=O)(=O)Nc1noc2cc(Cn3cccn3)cc(OC)c12 (stereo partly drawn) [Example 27, N-(6-((1H-Pyrazol-1-yl)methyl)-4-methoxybenzo[d]isoxazol-3-yl)-3-(7-(((3R)-1-(2-(2,6-dioxopiperidin-3-yl)-1-oxoisoindolin-5-yl)pyrrolidin-3-yl)methyl)-2,7-diazaspiro[3.5]nonan-2-yl)-2-methoxybenzenesulfonamide] | < 0.01 µM | > 75%
7 | COc1cc(Cn2cccn2)cc2onc(NS(=O)(=O)c3cccc(N4CC5(CCN(C[C@@H]6CCN(c7ccc8c(c7)CN([C@H]7CCC(=O)NC7=O)C8=O)C6)CC5)C4)c3)c12 [Example 28, N-(6-((1H-Pyrazol-1-yl)methyl)-4-methoxybenzo[d]isoxazol-3-yl)-3-(7-(((S)-1-(2-((S)-2,6-dioxopiperidin-3-yl)-1-oxoisoindolin-5-yl)pyrrolidin-3-yl)methyl)-2,7-diazaspiro[3.5]nonan-2-yl)benzenesulfonamide] | < 0.01 µM | > 75%
8 | COc1cc(Cn2cccn2)cc2onc(NS(=O)(=O)c3cccc(N4CCN(CC5CCN(c6ccc(C(=O)NC7CCC(=O)NC7=O)nc6)CC5)CC4)c3)c12 (stereo not shown) [Example 29, 5-(4-((4-(3-(N-(6-((1H-Pyrazol-1-yl)methyl)-4-methoxybenzo[d]isoxazol-3-yl)sulfamoyl)phenyl)piperazin-1-yl)methyl)piperidin-1-yl)-N-(2,6-dioxopiperidin-3-yl) picolinamide] | – | 25 to 50%

Continued, values first:

Row | DC50 | Dmax | Structure (SMILES)
9 | < 0.01 µM | 50 to 75% | COc1cc(Cn2cccn2)cc2onc(NS(=O)(=O)c3cccc(N4CC5(CCN(CC6(C)CCN(c7ccc8c(c7)C(=O)N(C7CCC(=O)NC7=O)C8=O)C6)CC5)C4)c3)c12 (stereo not shown) [Example 12, N-(6-((1H-Pyrazol-1-yl)methyl)-4-methoxybenzo[d]isoxazol-3-yl)-3-(7-((1-(2-(2,6-dioxopiperidin-3-yl)-1,3-dioxoisoindolin-5-yl)-3-methylpyrrolidin-3-yl)methyl)-2,7-diazaspiro[3.5]nonan-2-yl)benzenesulfonamide]
10 | 0.01 to 0.1 µM | 50 to 75% | COc1cc(Cn2cccn2)cc2onc(NS(=O)(=O)c3cccc(N4CC5(CCN(CC6(F)CCN(c7ccc8c(c7)C(=O)N(C7CCC(=O)NC7=O)C8=O)C6)CC5)C4)c3)c12 (stereo not shown) [Example 13, N-(6-((1H-Pyrazol-1-yl)methyl)-4-methoxybenzo[d]isoxazol-3-yl)-3-(7-((1-(2-(2,6-dioxopiperidin-3-yl)-1,3-dioxoisoindolin-5-yl)-3-fluoropyrrolidin-3-yl)methyl)-2,7-diazaspiro[3.5]nonan-2-yl)benzenesulfonamide]
11 | < 0.01 µM | 50 to 75% | COc1cc(Cn2cccn2)cc2onc(NS(=O)(=O)c3cccc(N4CCC5(CC4)CN(C[C@@H]4CCN(c6ccc7c(c6)C(=O)N(C6CCC(=O)NC6=O)C7=O)C4)C5)c3)c12 (stereo partly drawn) [Example 14, N-(6-((1H-Pyrazol-1-yl)methyl)-4-methoxybenzo[d]isoxazol-3-yl)-3-(2-(((3S)-1-(2-(2,6-dioxopiperidin-3-yl)-1,3-dioxoisoindolin-5-yl)pyrrolidin-3-yl)methyl)-2,7-diazaspiro[3.5]nonan-7-yl)benzenesulfonamide]
12 | < 0.01 µM | 50 to 75% | COc1cc(Cn2cccn2)cc2onc(NS(=O)(=O)c3cccc(N4CCC5(CCN(C[C@@H]6CCN(c7ccc8c(c7)C(=O)N(C7CCC(=O)NC7=O)C8=O)C6)CC5)C4)c3)c12 (stereo partly drawn) [Example 15, N-(6-((1H-Pyrazol-1-yl)methyl)-4-methoxybenzo[d]isoxazol-3-yl)-3-(8-(((3S)-1-(2-(2,6-dioxopiperidin-3-yl)-1,3-dioxoisoindolin-5-yl)pyrrolidin-3-yl)methyl)-2,8-diazaspiro[4.5]decan-2-yl)benzenesulfonamide]
13 | < 0.01 µM | > 75% | COc1cc(Cn2cccn2)cc2onc(NS(=O)(=O)c3cccc(N4CC5(CCN(C[C@@H]6CCN(c7ccc8c(c7)C(=O)N(C7CCC(=O)NC7=O)C8=O)C6)CC5)C4)c3)c12 (stereo partly drawn) [Example 16, N-(6-((1H-Pyrazol-1-yl)methyl)-4-methoxybenzo[d]isoxazol-3-yl)-3-(7-(((3S)-1-(2-(2,6-dioxopiperidin-3-yl)-1,3-dioxoisoindolin-5-yl)pyrrolidin-3-yl)methyl)-2,7-diazaspiro[3.5]nonan-2-yl)benzenesulfonamide]
14 | – | 25 to 50% | COc1cc(Cn2cccn2)cc2onc(NS(=O)(=O)c3cccc(N4CCN(CC5CN(c6ccc7c(c6)C(=O)N(C6CCC(=O)NC6=O)C7=O)CCO5)CC4)c3)c12 (stereo not shown) [Example 18, N-(6-((1H-Pyrazol-1-yl)methyl)-4-methoxybenzo[d]isoxazol-3-yl)-3-(4-((4-(2-(2,6-dioxopiperidin-3-yl)-1,3-dioxoisoindolin-5-yl)morpholin-2-yl)methyl)piperazin-1-yl)benzenesulfonamide]
15 | 0.01 to 0.1 µM | 50 to 75% | COc1cc(Cn2cccn2)cc2onc(NS(=O)(=O)c3cccc(N4CCN(CC5CC6(CCN(c7ccc8c(c7)C(=O)N(C7CCC(=O)NC7=O)C8=O)CC6)C5)CC4)c3)c12 (stereo not shown) [Example 19, N-(6-((1H-Pyrazol-1-yl)methyl)-4-methoxybenzo[d]isoxazol-3-yl)-3-(4-((7-(2-(2,6-dioxopiperidin-3-yl)-1,3-dioxoisoindolin-5-yl)-7-azaspiro[3.5]nonan-2-yl)methyl)piperazin-1-yl)benzenesulfonamide]
16 | < 0.01 µM | > 75% | COc1cc(Cn2cccn2)cc2onc(NS(=O)(=O)c3cccc(N4CCC5(CCN(CC6CCN(c7ccc8c(c7)C(=O)N(C7CCC(=O)NC7=O)C8=O)C6)CC5)CC4)c3)c12 (stereo not shown) [Example 20, N-(6-((1H-Pyrazol-1-yl)methyl)-4-methoxybenzo[d]isoxazol-3-yl)-3-(9-((1-(2-(2,6-dioxopiperidin-3-yl)-1,3-dioxoisoindolin-5-yl)pyrrolidin-3-yl)methyl)-3,9-diazaspiro[5.5]undecan-3-yl)benzenesulfonamide]
17 | 0.1 to 1 µM | 50 to 75% | COc1cc(Cn2cccn2)cc2onc(NS(=O)(=O)c3cccc(N4CCN(CC5CCN(c6ccc7c(c6)C(=O)N(C6CCC(=O)NC6=O)C7=O)C5)C(C)(C)C4)c3)c12 (stereo not shown) [Example 21, N-(6-((1H-Pyrazol-1-yl)methyl)-4-methoxybenzo[d]isoxazol-3-yl)-3-(4-((1-(2-(2,6-dioxopiperidin-3-yl)-1,3-dioxoisoindolin-5-yl)pyrrolidin-3-yl)methyl)-3,3-dimethylpiperazin-1-yl)benzenesulfonamide]
18 | < 0.01 µM | 50 to 75% | COc1cc(Cn2cccn2)cc2onc(NS(=O)(=O)c3cccc(N4CC5(CCN(C6CC7(CCN(c8ccc9c(c8)C(=O)N(C8CCC(=O)NC8=O)C9=O)C7)C6)CC5)C4)c3)c12 (stereo not shown) [Example 22, N-(6-((1H-Pyrazol-1-yl)methyl)-4-methoxybenzo[d]isoxazol-3-yl)-3-(7-(6-(2-(2,6-dioxopiperidin-3-yl)-1,3-dioxoisoindolin-5-yl)-6-azaspiro[3.4]octan-2-yl)-2,7-diazaspiro[3.5]nonan-2-yl)benzenesulfonamide]
